Laboratory results: US8168651B2, “Protein kinase modulators” (Cylene Pharmaceuticals, Inc., priority 2008, dated 2012)

Key:
Assay in all cases: Standardized radiometric kinase assays, percentage of activity at 0.5 μM;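 also: Read-out is ³³P-labelled substrate protein phosphorylated by each kinase, captured on filters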
[1] = target: each individual kinase of the panel (Homo sapiens, UniProt Q13177); conditions: for % Activity: PAK2(h)
[2] = target: each individual kinase of the panel (Homo sapiens, UniProt O14965); conditions: for % Activity: Aurora-A(h)
[3] = target: each individual kinase of the panel (Homo sapiens, UniProt P36888); conditions: for % Activity: Flt3(h)
Chain of each individual kinase of the panel (Homo sapiens, UniProt P36888) (P36888 27-993 limits assumed): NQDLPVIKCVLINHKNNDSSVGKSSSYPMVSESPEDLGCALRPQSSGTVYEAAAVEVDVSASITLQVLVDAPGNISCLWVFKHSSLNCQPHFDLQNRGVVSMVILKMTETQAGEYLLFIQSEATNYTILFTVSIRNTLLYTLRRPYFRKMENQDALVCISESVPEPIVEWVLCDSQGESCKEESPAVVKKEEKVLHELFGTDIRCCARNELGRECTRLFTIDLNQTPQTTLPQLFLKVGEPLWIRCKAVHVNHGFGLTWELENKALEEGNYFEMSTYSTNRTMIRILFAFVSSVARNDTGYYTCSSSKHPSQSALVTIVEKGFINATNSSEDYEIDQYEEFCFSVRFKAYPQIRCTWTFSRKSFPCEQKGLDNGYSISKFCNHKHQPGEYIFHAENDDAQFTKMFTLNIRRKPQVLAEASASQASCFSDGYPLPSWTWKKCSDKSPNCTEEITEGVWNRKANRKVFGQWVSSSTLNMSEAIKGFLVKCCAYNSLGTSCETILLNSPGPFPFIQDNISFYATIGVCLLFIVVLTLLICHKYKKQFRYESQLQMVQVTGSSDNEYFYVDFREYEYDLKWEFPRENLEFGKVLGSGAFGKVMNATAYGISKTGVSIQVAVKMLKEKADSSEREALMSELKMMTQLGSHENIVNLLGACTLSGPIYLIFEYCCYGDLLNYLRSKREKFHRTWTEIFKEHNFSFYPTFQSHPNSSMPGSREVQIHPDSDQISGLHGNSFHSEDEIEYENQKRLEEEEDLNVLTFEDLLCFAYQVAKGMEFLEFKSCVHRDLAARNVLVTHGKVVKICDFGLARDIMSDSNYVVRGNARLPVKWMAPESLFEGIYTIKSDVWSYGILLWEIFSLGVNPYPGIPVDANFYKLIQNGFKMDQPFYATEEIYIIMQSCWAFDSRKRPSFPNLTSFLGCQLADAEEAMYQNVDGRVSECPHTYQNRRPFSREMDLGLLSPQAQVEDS

[4] = target: each individual kinase of the panel (Homo sapiens, UniProt P12931); conditions: for % Activity: cSRC(h)
Chain of each individual kinase of the panel (Homo sapiens, UniProt P12931) (P12931 2-536 limits assumed): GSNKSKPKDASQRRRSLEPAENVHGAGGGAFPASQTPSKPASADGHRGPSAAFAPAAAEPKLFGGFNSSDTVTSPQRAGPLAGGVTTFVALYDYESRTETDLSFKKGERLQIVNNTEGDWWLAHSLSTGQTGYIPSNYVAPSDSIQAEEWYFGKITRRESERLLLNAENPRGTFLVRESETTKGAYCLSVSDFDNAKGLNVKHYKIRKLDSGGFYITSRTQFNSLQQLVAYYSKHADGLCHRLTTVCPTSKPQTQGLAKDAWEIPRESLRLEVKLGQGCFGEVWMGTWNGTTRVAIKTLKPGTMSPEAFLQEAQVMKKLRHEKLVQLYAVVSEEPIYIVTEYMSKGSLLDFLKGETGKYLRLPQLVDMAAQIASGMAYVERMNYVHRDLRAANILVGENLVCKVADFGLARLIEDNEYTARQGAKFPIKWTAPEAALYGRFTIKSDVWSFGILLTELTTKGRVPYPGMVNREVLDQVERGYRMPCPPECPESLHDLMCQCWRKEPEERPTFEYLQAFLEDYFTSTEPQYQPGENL

[5] = target: each individual kinase of the panel (Homo sapiens, UniProt P00533, L861Q); conditions: for % Activity: EGFR(L861Q)(h)
[6] = target: each individual kinase of the panel (Homo sapiens, UniProt P24941); conditions: for % Activity: CDK2/cyclinA(h)
[7] = target: each individual kinase of the panel (Homo sapiens, UniProt P08581); conditions: for % Activity: Met(h)
[8] = target: each individual kinase of the panel (Homo sapiens, UniProt P06213); conditions: for % Activity: IR(h)
[9] = target: each individual kinase of the panel (Homo sapiens, UniProt P00519); conditions: for % Activity: Abl(h)
[10] = target: each individual kinase of the panel (Homo sapiens, UniProt O15111); conditions: for % Activity: IKKα(h)
[11] = test system: each individual kinase of the panel; conditions: for % Activity: MAPK1(h)
[12] = target: each individual kinase of the panel (Homo sapiens, UniProt P17948); conditions: for % Activity: Flt1(h)
[13] = target: each individual kinase of the panel (Homo sapiens, UniProt Q8IW41); conditions: for % Activity: PRAK(h)
[14] = target: each individual kinase of the panel (Homo sapiens, UniProt Q9P1W9); conditions: for % Activity: Pim-2(h)
[15] = target: each individual kinase of the panel (Homo sapiens, UniProt P00533, T790M); conditions: for % Activity: EGFR(T790M)(h)
[16] = target: each individual kinase of the panel (Homo sapiens, UniProt P23443); conditions: for % Activity: p70S6K(h)
[17] = target: each individual kinase of the panel (Homo sapiens, UniProt P17252); conditions: for % Activity: PKCα(h)
[18] = target: each individual kinase of the panel (Homo sapiens, UniProt P08922)
Chain of each individual kinase of the panel (Homo sapiens, UniProt P08922) (P08922 28-2347 limits assumed): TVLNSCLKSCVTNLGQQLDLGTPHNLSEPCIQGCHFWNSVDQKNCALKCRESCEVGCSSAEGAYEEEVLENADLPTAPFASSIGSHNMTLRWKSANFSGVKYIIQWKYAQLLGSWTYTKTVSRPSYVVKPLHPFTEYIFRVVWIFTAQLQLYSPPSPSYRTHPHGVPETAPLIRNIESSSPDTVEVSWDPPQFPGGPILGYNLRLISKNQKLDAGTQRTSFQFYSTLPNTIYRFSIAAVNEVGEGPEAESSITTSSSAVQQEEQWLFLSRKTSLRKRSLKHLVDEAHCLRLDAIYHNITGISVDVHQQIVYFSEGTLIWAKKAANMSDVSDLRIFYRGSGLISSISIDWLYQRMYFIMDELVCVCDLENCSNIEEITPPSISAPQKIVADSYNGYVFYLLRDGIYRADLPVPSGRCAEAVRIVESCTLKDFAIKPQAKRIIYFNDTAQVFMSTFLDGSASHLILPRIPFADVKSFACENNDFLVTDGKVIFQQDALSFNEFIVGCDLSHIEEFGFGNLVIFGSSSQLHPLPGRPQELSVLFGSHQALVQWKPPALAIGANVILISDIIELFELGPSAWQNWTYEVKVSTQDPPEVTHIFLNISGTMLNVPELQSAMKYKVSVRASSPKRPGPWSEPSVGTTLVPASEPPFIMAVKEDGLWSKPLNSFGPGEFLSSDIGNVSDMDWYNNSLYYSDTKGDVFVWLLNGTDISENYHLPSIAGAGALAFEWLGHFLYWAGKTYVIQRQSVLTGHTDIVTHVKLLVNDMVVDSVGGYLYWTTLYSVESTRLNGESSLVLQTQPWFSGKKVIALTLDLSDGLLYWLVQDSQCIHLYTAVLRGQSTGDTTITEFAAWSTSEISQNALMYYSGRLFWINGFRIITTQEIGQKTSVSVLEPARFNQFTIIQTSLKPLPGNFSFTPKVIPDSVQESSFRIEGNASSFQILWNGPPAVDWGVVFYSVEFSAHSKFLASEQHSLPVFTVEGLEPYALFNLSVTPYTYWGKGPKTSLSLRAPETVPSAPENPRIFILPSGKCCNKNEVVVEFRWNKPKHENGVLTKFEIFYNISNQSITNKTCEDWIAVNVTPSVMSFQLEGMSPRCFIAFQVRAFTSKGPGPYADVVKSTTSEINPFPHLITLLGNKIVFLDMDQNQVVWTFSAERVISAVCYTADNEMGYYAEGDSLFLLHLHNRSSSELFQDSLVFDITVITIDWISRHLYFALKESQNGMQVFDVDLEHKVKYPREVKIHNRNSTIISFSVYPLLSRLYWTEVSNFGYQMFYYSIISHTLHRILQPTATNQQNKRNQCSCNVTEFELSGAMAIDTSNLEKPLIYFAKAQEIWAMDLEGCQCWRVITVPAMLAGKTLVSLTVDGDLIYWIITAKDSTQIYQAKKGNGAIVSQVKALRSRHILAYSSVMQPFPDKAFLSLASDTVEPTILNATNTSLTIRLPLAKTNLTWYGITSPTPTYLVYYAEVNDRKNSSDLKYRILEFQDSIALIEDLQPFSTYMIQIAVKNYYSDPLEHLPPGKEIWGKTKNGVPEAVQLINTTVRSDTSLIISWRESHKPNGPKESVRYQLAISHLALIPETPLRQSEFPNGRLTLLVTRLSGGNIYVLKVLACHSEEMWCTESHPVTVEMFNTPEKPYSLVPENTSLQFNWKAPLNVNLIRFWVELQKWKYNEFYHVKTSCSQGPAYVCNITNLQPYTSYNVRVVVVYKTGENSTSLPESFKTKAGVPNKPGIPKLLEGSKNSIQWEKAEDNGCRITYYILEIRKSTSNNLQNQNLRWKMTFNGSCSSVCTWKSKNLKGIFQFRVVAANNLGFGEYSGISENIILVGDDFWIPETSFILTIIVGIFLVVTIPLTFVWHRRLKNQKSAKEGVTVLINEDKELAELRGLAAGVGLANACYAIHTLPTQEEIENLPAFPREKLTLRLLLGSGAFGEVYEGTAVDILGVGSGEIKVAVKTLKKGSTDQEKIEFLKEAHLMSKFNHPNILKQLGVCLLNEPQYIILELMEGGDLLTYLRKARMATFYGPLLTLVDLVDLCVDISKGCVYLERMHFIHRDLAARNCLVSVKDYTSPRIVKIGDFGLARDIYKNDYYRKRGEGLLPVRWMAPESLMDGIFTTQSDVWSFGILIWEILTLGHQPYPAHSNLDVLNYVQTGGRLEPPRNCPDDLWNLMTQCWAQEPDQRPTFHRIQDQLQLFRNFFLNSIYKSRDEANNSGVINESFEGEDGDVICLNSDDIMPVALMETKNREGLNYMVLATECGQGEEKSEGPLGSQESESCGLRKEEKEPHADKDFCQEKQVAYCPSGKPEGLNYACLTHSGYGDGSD

[19] = target: each individual kinase of the panel (Homo sapiens, UniProt Q9HCP0); conditions: for % Activity: CK1γ1(h)
[20] = target: each individual kinase of the panel (Homo sapiens, UniProt Q9H422); conditions: for % Activity: HIPK3(h)
[21] = target: each individual kinase of the panel (Homo sapiens, UniProt P50750); conditions: for % Activity: CDK9/cyclin T1 (h)
[22] = target: each individual kinase of the panel (Homo sapiens, UniProt P80192); conditions: for % Activity: MLK1(h)
[23] = target: each individual kinase of the panel (Homo sapiens, UniProt Q9NWZ3); conditions: for % Activity: IRAK4(h)
[24] = target: each individual kinase of the panel (Homo sapiens, UniProt Q13976); conditions: for % Activity: PKG1α(h)
[25] = target: each individual kinase of the panel (Homo sapiens, UniProt Q14680); conditions: for % Activity: MELK(h)
[26] = target: each individual kinase of the panel (Homo sapiens, UniProt O60674); conditions: for % Activity: JAK2(h)
[27] = target: each individual kinase of the panel (Homo sapiens, UniProt Q05397); conditions: for % Activity: FAK(h)
Chain of each individual kinase of the panel (Homo sapiens, UniProt Q05397) (Q05397 2-1052 limits assumed): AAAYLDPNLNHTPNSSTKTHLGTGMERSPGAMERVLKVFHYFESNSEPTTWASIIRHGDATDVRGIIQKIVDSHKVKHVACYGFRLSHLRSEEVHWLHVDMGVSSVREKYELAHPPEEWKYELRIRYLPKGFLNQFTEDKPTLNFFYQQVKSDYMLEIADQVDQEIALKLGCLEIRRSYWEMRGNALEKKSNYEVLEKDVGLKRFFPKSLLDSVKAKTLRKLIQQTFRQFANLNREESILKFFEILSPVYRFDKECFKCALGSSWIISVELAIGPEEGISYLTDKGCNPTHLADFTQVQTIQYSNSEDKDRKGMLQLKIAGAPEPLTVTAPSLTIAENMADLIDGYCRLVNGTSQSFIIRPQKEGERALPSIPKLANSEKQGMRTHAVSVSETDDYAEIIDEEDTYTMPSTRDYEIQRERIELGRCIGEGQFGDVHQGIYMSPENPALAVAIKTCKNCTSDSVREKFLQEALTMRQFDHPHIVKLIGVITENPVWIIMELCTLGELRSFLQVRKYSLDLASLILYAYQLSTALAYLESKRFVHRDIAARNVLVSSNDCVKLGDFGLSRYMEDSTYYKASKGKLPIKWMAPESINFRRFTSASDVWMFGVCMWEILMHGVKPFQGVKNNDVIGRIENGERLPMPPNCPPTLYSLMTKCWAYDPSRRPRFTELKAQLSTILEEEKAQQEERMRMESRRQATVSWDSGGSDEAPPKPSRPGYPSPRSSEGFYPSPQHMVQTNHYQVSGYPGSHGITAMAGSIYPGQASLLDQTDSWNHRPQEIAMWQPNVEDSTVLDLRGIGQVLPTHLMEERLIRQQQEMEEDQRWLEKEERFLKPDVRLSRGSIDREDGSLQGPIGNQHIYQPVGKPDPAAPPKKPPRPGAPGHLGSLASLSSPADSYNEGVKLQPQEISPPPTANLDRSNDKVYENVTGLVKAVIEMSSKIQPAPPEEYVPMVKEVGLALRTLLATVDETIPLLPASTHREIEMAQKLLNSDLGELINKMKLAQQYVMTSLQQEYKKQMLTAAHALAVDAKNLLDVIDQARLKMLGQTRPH

[28] = target: each individual kinase of the panel (Homo sapiens, UniProt O94804); conditions: for % Activity: LOK(h)
[29] = target: each individual kinase of the panel (Homo sapiens, UniProt P28482)

Clc1ccccc1Nc1nc2c(-c3nnc[nH]3)cccc2c2cnccc12 [A]
% Activity [1]: 106%
% Activity [2]: 43%
% Activity [3]: 5%
% Activity [4]: 64%
% Activity [5]: 60%
% Activity [6]: 31%
% Activity [7]: 22%
% Activity [8]: 112%
% Activity [9]: 87%
% Activity [10]: 108%
% Activity [11]: 77%
% Activity [12]: 62%
% Activity [13]: 97%
% Activity [14]: 2%
% Activity [15]: 53%
% Activity [16]: 77%
% Activity [17]: 99%
% Activity ([18]; Ros(h)): 90%
% Activity [19]: 30%
% Activity [20]: 2%
% Activity [21]: 37%
% Activity [22]: 24%
% Activity [23]: 12%
% Activity [24]: 40%
% Activity [25]: 13%
% Activity [26]: 39%
% Activity [27]: 30%
% Activity [28]: 63%

NC(=O)c1cccc2c1nc(Nc1cccc(Cl)c1)c1ccncc12 [B]
% Activity [1]: 108%
% Activity [2]: 77%
% Activity [3]: 7%
% Activity [4]: 74%
% Activity [5]: 54%
% Activity [6]: 17%
% Activity [7]: 96%
% Activity [8]: 95%
% Activity [9]: 92%
% Activity [10]: 99%
% Activity [11]: 86%
% Activity [12]: 66%
% Activity [13]: 84%
% Activity [14]: 46%
% Activity [15]: 76%
% Activity [16]: 87%
% Activity [17]: 97%
% Activity [19]: 71%
% Activity [20]: −1%
% Activity [21]: 18%
% Activity [22]: 77%
% Activity [23]: 81%
% Activity [24]: 34%
% Activity [25]: 14%
% Activity [26]: 55%
% Activity [27]: 106%
% Activity [28]: 87%

C#Cc1cccc(Nc2nc3cc(C(=O)O)ccc3c3cncnc23)c1 [drawing 1135]
PAK2 percentage of activity [1]: −12%
AURKA percentage of activity [2]: 6%
FLT3 percentage of activity [3]: 58%
SRC percentage of activity [4]: −2%
Src(1-530) percentage of activity [4]: −1%
CDK2/cyclinE percentage of activity [6]: −13%
MET percentage of activity [7]: −22%
INSR percentage of activity [8]: −5%
ABL1 percentage of activity [9]: 9%
IKK alpha percentage of activity [10]: −1%
ERK2 percentage of activity [29]: 5%
MAPK2 percentage of activity [29]: −4%
MLCK percentage of activity [11]: −3%
PDGFRB (V561D) percentage of activity [11]: −4%
PRKCB2 percentage of activity [11]: 1%
FLT1 percentage of activity [12]: 5%
MAPKAPK5 percentage of activity [13]: 7%
PIM2 percentage of activity [14]: 25%
EGFR(T790M) percentage of activity [15]: 8%
p70S6K percentage of activity [16]: 20%
PRKCA percentage of activity [17]: 1%
ROS percentage of activity [18]: −10%
CK1 gamma 1 percentage of activity [19]: −5%
HIPK3 percentage of activity [20]: 90%
CDK9/cyclin T1 percentage of activity [21]: 0%
MLK1 percentage of activity [22]: 20%
IRAK4 percentage of activity [23]: −19%
PRKG1 percentage of activity [24]: −5%
MELK percentage of activity [25]: 51%
JAK2 percentage of activity [26]: 1%
FAK percentage of activity [27]: 3%

C#Cc1cccc(Nc2nc3cc(C(=O)O)ccc3c3cnccc23)c1 [drawing 1137]
PAK2 percentage of activity [1]: 1%
AURKA percentage of activity [2]: 3%
FLT3 percentage of activity [3]: 90%
SRC percentage of activity [4]: 22%
Src(1-530) percentage of activity [4]: 11%
EGFR(L861Q) percentage of activity [5]: 59%
CDK2/cyclin A percentage of activity [6]: 53%
MET percentage of activity [7]: −16%
INSR percentage of activity [8]: −7%
ABL1 percentage of activity [9]: 20%
IKK alpha percentage of activity [10]: 3%
ERK2 percentage of activity [29]: 21%
FLT1 percentage of activity [12]: 75%
MAPKAPK5 percentage of activity [13]: 22%
PIM2 percentage of activity [14]: 6%
EGFR(T790M) percentage of activity [15]: 16%
p70S6K percentage of activity [16]: 36%
PRKCA percentage of activity [17]: 9%
ROS percentage of activity [18]: 5%
CK1 gamma 1 percentage of activity [19]: 10%
HIPK3 percentage of activity [20]: 91%
CDK9/cyclin T1 percentage of activity [21]: 27%
MLK1 percentage of activity [22]: 21%
IRAK4 percentage of activity [23]: 4%
PRKG1 percentage of activity [24]: −4%
MELK percentage of activity [25]: 77%
JAK2 percentage of activity [26]: 38%
FAK percentage of activity [27]: −2%
LOK percentage of activity [28]: 72%

NC(=O)c1ccc2c(c1)nc(Nc1cccc(Cl)c1)c1ccncc12 [drawing 1138]
PAK2 percentage of activity [1]: 4%
AURKA percentage of activity [2]: 11%
FLT3 percentage of activity [3]: 100%
EGFR(L861Q) percentage of activity [5]: 70%
CDK2/cyclin A percentage of activity [6]: 53%
MET percentage of activity [7]: −6%
INSR percentage of activity [8]: 0%
ABL1 percentage of activity [9]: 14%
IKK alpha percentage of activity [10]: −13%
ERK2 percentage of activity [29]: 15%
FLT1 percentage of activity [12]: 19%
MAPKAPK5 percentage of activity [13]: 22%
EGFR(T790M) percentage of activity [15]: 43%
p70S6K percentage of activity [16]: 8%
PRKCA percentage of activity [17]: 1%
ROS percentage of activity [18]: −3%
CK1 gamma 1 percentage of activity [19]: 7%
HIPK3 percentage of activity [20]: 57%
CDK9/cyclin T1 percentage of activity [21]: 45%
MLK1 percentage of activity [22]: 49%
IRAK4 percentage of activity [23]: 12%
PRKG1 percentage of activity [24]: 4%
MELK percentage of activity [25]: 73%
JAK2 percentage of activity [26]: −4%
FAK percentage of activity [27]: 4%
LOK percentage of activity [28]: 56%
